Target: T1, cortactin SH3 domain (Mus musculus, UniProt Q60598)
T1 construct: nucleotides1468-1641); 6xHis (N, cleaved yes); made in house; host or cells: E. coli BL21 (DE3)
Experiment: NMR affinity determination, binding of peptides to purified cortactin-SH3
Conditions: binding to cortactin SH3 in vitro
Description: The DNA sequence encoding the SH3 domain of the mouse cortactin SH3 domain (GenBank ID U03184; nucleotides1468-1641) was sub-cloned into a pET-28a plasmid (Novagen, Merck) in frame with the cleavable N-terminal 6×His tag. Isotopically labeled cortactin-SH3 for heteronuclear NMR experiments was expressed in transformed E. coli BL21 cells (DE3) grown in the presence of kanamycin (50 mg/1) and chloramphenicol (34 mg/1) at 37° C. in M9 minimal medium. For ^15N (^13C) labeling the medium contained 1 g/L of ^15NH4Cl (4 g/L ^13C6-glucose), and 0.25 g/l of appropriately labeled Celtone Base Powder (Cambridge Isotope Laboratories, Andover, MA) was added. For triple-labeled ^2H,^13C,^15N—SH3, expression began in 100 ml of the above medium grown to an OD600 of 0.4-0.5 and gently centrifuged. Pellets were then resuspended in 500 ml filter-sterilized D20-based ^15N-M9 supplemented with ^2H7-^13C6-glucose (2 g/1) and DCN-Isogro (0.25 g/1) to reach a final OD600 of −0.1. In both cases cells were then grown at 37° C. and induced with 0.5 mM isopropyl β-D-1-thiogalactopyranoside (IPTG) upon reaching OD600-0.8, followed by overnight growth at 27° C. To purify the SH3 domain, cells were harvested by centrifugation, subjected to a single freeze-thaw cycle, and resuspended in lysis buffer (50 mM NaPi pH 8.0, 300 mM NaCl, 1 mM dithiothreitol (DTT), 100 ml per liter of culture) supplemented with 1 tablet EDTA-free protease inhibitor cocktail (Merck) and benzamidine (5 mM). Cells were lysed by French press, followed by addition of benzamidine (final concentration 10 mM) and phenylmethylsulfonyl fluoride (PMSF, 1 mM), and the lysate was clarified by centrifugation. The supernatant was loaded on a HisTrap HP column (GE Healthcare, Chicago, IL, USA) equilibrated with lysis buffer and the protein eluted through a gradient (Buffer B: 50 mM NaPi pH 8.0, 100 mM NaCl, 300 mM imidazole, 1 mM DTT). To the fraction eluting at ˜40% B purified tobacco etch virus (TEV) protease (1:30 mol:mol) was added, and the mixture dialyzed overnight at 4° C. against dialysis buffer (50 mM NaPi at pH 8.0, 100 mM NaCl, 1 mM DTT). The dialysate was brought to a final concentration of ˜5 mM imidazole, filtered, and loaded onto a HisTrap column. The collected flowthrough was dialyzed against 20 mM Tris (pH 7.5), 1 mM DTT for 3 h to reach a final concentration of 10 mM NaCl. […]
Purified SH3 was dialyzed against NMR sample buffer (30 mM NaPi, pH ˜6.5) and concentrated to the desired concentration in an Amicon concentration tube (3 kDa MWCO) (Merck). […] For quantitative titrations, purchased peptides were dissolved in 100-300 μl NMR sample buffer, and samples at varying (SH3:PRR2 1:0-1:6, SH3 concentration constant at 0.1 mM) ratios were prepared. Fittings were performed with 5-6 measured points. […]

T1 sequence (Q60598 490-546): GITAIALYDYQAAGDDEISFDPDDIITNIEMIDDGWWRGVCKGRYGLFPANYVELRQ

C[C@H](NC(=O)[C@@H](N)[C@@H](C)O)C(=O)N[C@@H](Cc1ccccc1)C(=O)N[C@@H](CCC(N)=O)C(=O)N[C@@H](CCC(=O)O)C(=O)N1CCC[C@H]1C(=O)N1CCC[C@H]1C(=O)N1CCC[C@H]1C(=O)N[C@@H](CCCCN)C(=O)N1CCC[C@H]1C(=O)N[C@@H](CO)C(=O)N[C@@H](CCCNC(=N)N)C(=O)N1CCC[C@H]1C(=O)N[C@@H](CCCCN)C(=O)N[C@@H](Cc1ccc(O)cc1)C(=O)N[C@@H](CCCNC(=N)N)C(=O)N1CCC[C@H]1C(=O)N1CCC[C@H]1C(=O)N1CCC[C@H]1C(=O)O [Pyk2-PRR2, TAFQEPPPKPSRPKYRPPP]
higher affinity than Pyk2-PRR3: 16 fold

— patent US20240368566A1, “PYK2-DERIVED PEPTIDES FOR INHIBITING INVADOPODIA-MEDIATED CANCER METASTASIS” (BAR-ILAN UNIVERSITY, priority 2023, published 2024)
